Values of other authors in patent US20020015745A1, “Process for enhancing immune response in canines using a dietary composition including garlic” (priority 2000, published 2002).

Test system: human prostate carcinoma LNCaP cells
Conditions: in culture

For `C=CCSSC[C@H](N)C(=O)O` [S-allylmercaptocysteine], which “growth of human prostate carcinoma LNCaP cells” value is on record?
The value was “reduce the growth”.
